Laboratory results published in US4708956A, “3-position halogenated cephalosporin analogs and pharmaceutical compositions” (Kyowa Hakko Kogyo Co., Ltd., priority 1986, dated 1987).
In brackets after ≈: the same amount, converted by molar mass. Where two headings read alike, the source gives them in different places.

How the values were obtained:
[1] = test system: Gram-positive and Gram-negative bacteria; settings: J. Am. Chem. Soc., 96, 7584 (1974); J. Med. Chem., 20, 551 (1977); cited from earlier work
[2] = test system: Staphylococcus epidermidis; assay: Heart Infusion Agar Dilution Method, minimum inhibitory concentration; type: cell-based; settings: pH 7.2
Description: (§1) The activity is determined by the Heart Infusion Agar Dilution Method (pH 7.2).

[3] = test system: Staphylococcus aureus Smith; assay: as above; type: cell-based; settings: pH 7.2
Description: as §1

[4] = test system: Serratia marcescens T-55; assay: as above; type: cell-based
Description: as §1

[5] = test system: Klebsiella pneumoniae 8045; assay: as above; type: cell-based; settings: pH 7.2
Description: as §1

[6] = test system: Escherichia coli Juhl; assay: as above; type: cell-based
Description: as §1

[7] = test system: Proteus rettgeri KY4289; assay: as above; type: cell-based; settings: Providencia rettgeri
Description: as §1

[8] = test system: Proteus morganii KY4298; assay: as above; type: cell-based; settings: Morganella morganii
Description: as §1

[9] = test system: Escherichia coli NIHJC-2; assay: as above; type: cell-based
Description: as §1

[10] = test system: Proteus vulgaris 6897; assay: as above; type: cell-based; settings: pH 7.2
Description: as §1

[11] = test system: Klebsiella pneumoniae Y-60; assay: as above; type: cell-based
Description: as §1

[12] = test system: Staphylococcus aureus 209-p; assay: as above; type: cell-based
Description: as §1

[13] = test system: Proteus mirabilis 1287; assay: as above; type: cell-based; settings: pH 7.2
Description: as §1

[14] = test system: Pseudomonas putida F264; assay: as above; type: cell-based
Description: as §1

[15] = test system: Gram-positive and Gram-negative bacteria; assay: antibacterial activity (general statements); type: cell-based; settings: general or comparative statement
[16] = T55, Serratia marcescens T-55, Heart Infusion Agar Dilution Method, pH 7.2, read-out: Minimum Inhibitory Concentration
[17] = Escherichia coli Juhl, Heart Infusion Agar Dilution Method, pH 7.2, read-out: Minimum Inhibitory Concentration
[18] = Proteus rettgeri KY4289, Heart Infusion Agar Dilution Method, pH 7.2, read-out: Minimum Inhibitory Concentration
[19] = Proteus morganii KY4298, Heart Infusion Agar Dilution Method, pH 7.2, read-out: Minimum Inhibitory Concentration
[20] = NIHJC2, Escherichia coli NIHJC-2, Heart Infusion Agar Dilution Method, pH 7.2, read-out: Minimum Inhibitory Concentration
[21] = Y60, Klebsiella pneumoniae Y-60, Heart Infusion Agar Dilution Method, pH 7.2, read-out: Minimum Inhibitory Concentration
[22] = Staphylococcus aureus 209-p, Heart Infusion Agar Dilution Method, pH 7.2, read-out: Minimum Inhibitory Concentration
[23] = Pseudomonas putida F264, Heart Infusion Agar Dilution Method, pH 7.2, read-out: Minimum Inhibitory Concentration

MIC [2]	MIC [3]	MIC [4, 16]	MIC [5]	MIC [6, 17]	MIC [7, 18]	MIC [8, 19]	MIC [9, 20]	MIC [10]	MIC [11, 21]	MIC [12, 22]	MIC [13]	MIC [14, 23]	Compound	further results
													CC(=O)OCC1=C(C(=O)O)N2C(=O)C(NC(=O)Cc3cccs3)C2CC1 (racemic) [(i)-1-carbacephalotin]	antibacterial activity, in words (literature) [1]: having antibacterial activity
25 µg/mL (≈ 68 µM)	12.5 µg/mL (≈ 34 µM)	> 100 µg/mL	12.5 µg/mL (≈ 34 µM)	50 µg/mL (≈ 136 µM)	25 µg/mL (≈ 68 µM)	> 100 µg/mL	50 µg/mL (≈ 136 µM)	25 µg/mL (≈ 68 µM)	50 µg/mL (≈ 136 µM)	6.25 µg/mL (≈ 17 µM)	12.5 µg/mL (≈ 34 µM)	> 100 µg/mL	CO/N=C(\C(=O)N[C@@H]1C(=O)N2C(C(=O)O)=C(Cl)CC[C@H]12)c1ccco1 (relative stereo) [c, cis-7-[2-(2-furyl)-2-syn-methoxyiminoacetamido]-3-chloro-1-azabicyclo[4,2,0]oct-2-en-8-on-2-carboxylic acid]	
50 µg/mL (≈ 125 µM)	50 µg/mL (≈ 125 µM)	1.56 µg/mL (≈ 3.9 µM)	≤ 0.05 µg/mL	0.4 µg/mL (≈ 1 µM)	0.1 µg/mL (≈ 0.25 µM)	0.4 µg/mL (≈ 1 µM)	0.78 µg/mL (≈ 1.95 µM)	0.4 µg/mL (≈ 1 µM)	0.78 µg/mL (≈ 1.95 µM)	50 µg/mL (≈ 125 µM)	0.1 µg/mL (≈ 0.25 µM)	3.12 µg/mL (≈ 7.8 µM)	CO/N=C(\C(=O)N[C@@H]1C(=O)N2C(C(=O)O)=C(Cl)CC[C@H]12)c1csc(N)n1 (relative stereo) [d, (±)-cis-7-[2-(2-aminothiazole-4-yl)-2-syn-methoxyiminoacetamido]-3-chloro-1-azabicyclo[4,2,0]oct-2en-8-on-2-carboxylic acid]	
1.56 µg/mL (≈ 3.01 µM)	1.56 µg/mL (≈ 3.01 µM)	3.12 µg/mL (≈ 6.02 µM)	0.1 µg/mL (≈ 0.193 µM)	3.12 µg/mL (≈ 6.02 µM)	3.12 µg/mL (≈ 6.02 µM)	3.12 µg/mL (≈ 6.02 µM)	3.12 µg/mL (≈ 6.02 µM)	≤ 0.05 µg/mL	12.5 µg/mL (≈ 24.1 µM)	0.4 µg/mL (≈ 0.772 µM)	1.56 µg/mL (≈ 3.01 µM)	25 µg/mL (≈ 48.3 µM)	CCN1CCN(C(=O)N[C@@H](C(=O)N[C@@H]2C(=O)N3C(C(=O)O)=C(Cl)CC[C@H]23)c2ccccc2)C(=O)C1=O [b, (6R, 7S) 7-[(R)-2-phenyl-2-(4-ethyl-2,3-dioxopiperadinylcarbonylamino)-acetamido]-3-chloro-1-azabicyclo[4,2,0]oct-2-en-8-on-2-carboxylic acid]	
1.56 µg/mL (≈ 4.26 µM)	1.56 µg/mL (≈ 4.26 µM)	6.25 µg/mL (≈ 17.1 µM)	0.78 µg/mL (≈ 2.13 µM)	1.56 µg/mL (≈ 4.26 µM)	100 µg/mL (≈ 273 µM)	> 100 µg/mL	1.56 µg/mL (≈ 4.26 µM)	100 µg/mL (≈ 273 µM)	12.5 µg/mL (≈ 34.2 µM)	0.4 µg/mL (≈ 1.09 µM)	3.12 µg/mL (≈ 8.53 µM)	100 µg/mL (≈ 273 µM)	N[C@@H](C(=O)N[C@@H]1C(=O)N2C(C(=O)O)=C(Cl)CC[C@H]12)c1ccc(O)cc1 [e, (6R, 7S) 7-(R)-p-hydroxyphenyl-glycinamido-3-chloro-1-azabicyclo[4,2,0]oct-2-en-8-on-2-carboxylic acid]	
													CC1=C(C(=O)O)N2C(=O)[C@@H](NC(=O)[C@H](N)c3ccccc3)[C@H]2SC1 [f, Cephalexin, reference compound]	MIC ([4]; Serratia marcescens, T55, pH 7.2, read-out: Minimum Inhibitory Concentration): 50 µg/mL (≈ 144 µM); MIC ([6]; Escherichia coli, pH 7.2, read-out: Minimum Inhibitory Concentration): 12.5 µg/mL (≈ 36 µM); MIC ([7]; KY4289, pH 7.2, read-out: Minimum Inhibitory Concentration): > 100 µg/mL; MIC ([8]; KY4298, pH 7.2, read-out: Minimum Inhibitory Concentration): > 100 µg/mL; MIC ([9]; Escherichia coli, NIHJC2, pH 7.2, read-out: Minimum Inhibitory Concentration): 12.5 µg/mL (≈ 36 µM); MIC ([11]; Klebsiella pneumoniae, Y60, pH 7.2, read-out: Minimum Inhibitory Concentration): 50 µg/mL (≈ 144 µM); MIC ([12]; Staphylococcus aureus, 209P, pH 7.2, read-out: Minimum Inhibitory Concentration): 0.2 µg/mL (≈ 0.576 µM); MIC ([14]; Pseudomonas putida, F264, pH 7.2, read-out: Minimum Inhibitory Concentration): > 100 µg/mL

Compound	MIC [2]	MIC [3]	MIC [4, 16]	MIC [5]	MIC [6, 17]	MIC [7, 18]	MIC [8, 19]	MIC [9, 20]	MIC [10]	MIC [11, 21]	MIC [12, 22]	MIC [13]	MIC [14, 23]	further results
N[C@@H](C(=O)N[C@@H]1C(=O)N2C(C(=O)O)=C(Cl)CC[C@H]12)c1ccccc1 [a, (6R, 7S) 7-(R)-phenylglycinamido-3-chloro-1-azabicyclo[4,2,0]oct-2-en-8-on-2-carboxylic acid]						100 µg/mL (≈ 286 µM)	> 100 µg/mL		100 µg/mL (≈ 286 µM)				100 µg/mL (≈ 286 µM)	antibacterial (antimicrobial) activity, in words [15]: greater antimicrobial activity
